What is called pIC50 is the IC50 on a negative log10 scale, so that one unit is a factor of ten.

SMILES strings stand for the structures. pIC50: −log10 of the molar value.

24 compounds from ChEMBL document CHEMBL1153804, “Optimization of a series of quinazolinone-derived antagonists of CXCR3” (Bioorg Med Chem Lett, 2009) can be followed below.

In the first series the target is T1, C-X-C chemokine receptor type 3 (Homo sapiens, UniProt P49682).
T1 sequence (P49682 whole entry): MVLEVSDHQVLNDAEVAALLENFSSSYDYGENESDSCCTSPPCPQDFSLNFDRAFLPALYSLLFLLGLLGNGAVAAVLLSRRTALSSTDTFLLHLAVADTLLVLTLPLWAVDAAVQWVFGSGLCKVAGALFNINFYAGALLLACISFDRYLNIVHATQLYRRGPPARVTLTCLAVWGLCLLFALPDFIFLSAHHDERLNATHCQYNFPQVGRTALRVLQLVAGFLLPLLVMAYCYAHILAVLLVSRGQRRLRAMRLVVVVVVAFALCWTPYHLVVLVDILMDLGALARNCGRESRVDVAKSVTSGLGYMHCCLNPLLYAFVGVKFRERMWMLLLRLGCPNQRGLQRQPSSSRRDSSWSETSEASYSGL
The experiment in a line: Displacement of [125I]-1P10 from human CXCR3 expressed in PBMC after 2 hrs in RPMI buffer by scintillation counting.
Take `CCOc1ccc(-n2c([C@@H](C)N(Cc3cccnc3)C(=O)Cc3ccc(F)c(C(F)(F)F)c3)nc3cnccc3c2=O)cc1`: the pIC50 is 7.49.
`CCOc1ccc(-n2c([C@@H](C)N(Cc3cccnc3)C(=O)Cc3cc(F)c(F)c(F)c3)nc3ccccc3c2=O)cc1` showed a pIC50 of 8.10.
Consider `CCOc1ccc(-n2c([C@@H](C)N(C[C@H]3CCCN3)C(=O)Cc3ccc(F)c(C(F)(F)F)c3)nc3ncccc3c2=O)cc1`, for which the pIC50 was 8.70.
In turn, `CCOc1ccc(-n2c([C@@H](C)N(Cc3cccnc3)C(=O)CCc3ccc(C(F)(F)F)cc3)nc3ccccc3c2=O)cc1` had a pIC50 of 5.68.
`CCOc1ccc(-n2c([C@@H](C)N(C[C@@H]3CCCN3C(C)C)C(=O)Cc3ccc(F)c(C(F)(F)F)c3)nc3ncccc3c2=O)cc1`: the pIC50 was 8.30.
For the compound `CCOc1ccc(-n2c([C@@H](C)N(Cc3cccnc3)C(=O)Cc3ccc(S(C)(=O)=O)cc3)nc3ccccc3c2=O)cc1`, the pIC50 was 6.11.
In turn, `CCOc1ccc(-n2c([C@@H](C)N(C[C@H]3CCCN3C(C)C)C(=O)Cc3ccc(F)c(C(F)(F)F)c3)nc3ncccc3c2=O)cc1` had a pIC50 of 8.70.
`CCOc1ccc(-n2c([C@@H](C)N(Cc3cccnc3)C(=O)CN3CCN(CCC(F)(F)F)CC3)nc3ccccc3c2=O)cc1` showed a pIC50 of 6.16.
Consider `CCOc1ccc(-n2c([C@@H](C)N(Cc3cccnc3)C(=O)Cc3nc4ccc(C(F)(F)F)cc4[nH]3)nc3ccccc3c2=O)cc1`, for which the pIC50 is 6.68.
In turn, `CCOc1ccc(-n2c([C@@H](C)N(Cc3cccnc3)C(=O)Cc3ccc(C#N)cc3)nc3ccccc3c2=O)cc1` had a pIC50 of 7.68.
For `CCOc1ccc(-n2c([C@@H](C)N(Cc3cccnc3)C(=O)Cc3ccc(F)c(F)c3)nc3ccccc3c2=O)cc1`, the pIC50 was 7.40.
Take `CCOc1ccc(-n2c([C@@H](C)N(Cc3ccc[n+]([O-])c3)C(=O)Cc3ccc(OC(F)(F)F)cc3)nc3ncccc3c2=O)cc1`: the pIC50 was 8.40.
For `CCOc1ccc(-n2c([C@@H](C)N(Cc3cccnc3)C(=O)Cc3ccc(F)c(C(F)(F)F)c3)nc3cccnc3c2=O)cc1`, the pIC50 was 6.96.
`CCOc1ccc(-n2c([C@@H](C)N(Cc3cccnc3)C(=O)Cn3cnc(C(F)(F)F)c3)nc3ccccc3c2=O)cc1` had a pIC50 of 8.15.
Compound `CCOc1ccc(-n2c([C@@H](C)N(Cc3cccnc3)C(=O)Cc3ccc(F)c(C(F)(F)F)c3)nc3ncccc3c2=O)cc1` had a pIC50 of 8.30.
Still for that read-out and setting: in the case of `CCOc1ccc(-n2c([C@@H](C)N(Cc3cccnc3)C(=O)Cc3cccc(C(F)(F)F)c3)nc3ccccc3c2=O)cc1` it was 7.96.
In the case of `CCOc1ccc(-n2c([C@@H](C)N(C(=O)Cc3ccc(F)c(C(F)(F)F)c3)C3CCN(C(C)C)CC3)nc3ncccc3c2=O)cc1`, the pIC50 is 9.00.
`CCOc1ccc(-n2c([C@@H](C)N(Cc3cccnc3)C(=O)Cc3ccc(F)c(C(F)(F)F)c3)nc3nccnc3c2=O)cc1` showed a pIC50 of 7.38.
`CCOc1ccc(-n2c([C@@H](C)N(C(=O)Cc3ccc(F)c(C(F)(F)F)c3)C3CCOCC3)nc3ncccc3c2=O)cc1` had a pIC50 of 8.30.
`CCOc1ccc(-n2c([C@@H](C)N(C(=O)Cc3ccc(F)c(C(F)(F)F)c3)C3CCN(C(C)=O)CC3)nc3ncccc3c2=O)cc1`: the pIC50 is 8.22.
Same read-out and setting: in the case of `CCOc1ccc(-n2c([C@@H](C)N(CC3CCN(C)CC3)C(=O)Cc3ccc(F)c(C(F)(F)F)c3)nc3ncccc3c2=O)cc1` it was 8.70; in that of `CCOc1ccc(-n2c([C@@H](C)N(Cc3cc(C)no3)C(=O)Cc3ccc(F)c(C(F)(F)F)c3)nc3ncccc3c2=O)cc1`, 8.70.
Compound `CCOc1ccc(-n2c([C@@H](C)N(Cc3cccnc3)C(=O)Cc3cc(C(F)(F)F)cc(C(F)(F)F)c3)nc3ccccc3c2=O)cc1` had a pIC50 of 8.15.

The subject of a further series is Blood. In words: Drug level in bleomycin-induced mouse blood at 10 mg/mL, sc. It counts as ADME, tissue-based.
In turn, `CCOc1ccc(-n2c([C@@H](C)N(Cc3cccnc3)C(=O)Cc3ccc(OC(F)(F)F)cc3)nc3ncccc3c2=O)cc1` registered a Drug uptake of 104 ng/mL.

The subject of the next series is Blood. In words: Drug level in bleomycin-induced mouse blood at 3 mg/mL, sc. In kind it is ADME, tissue-based.
Turning to `CCOc1ccc(-n2c([C@@H](C)N(Cc3ccc[n+]([O-])c3)C(=O)Cc3ccc(OC(F)(F)F)cc3)nc3ncccc3c2=O)cc1`, the Drug uptake worked out at 19 ng/mL.
With `CCOc1ccc(-n2c([C@@H](C)N(Cc3cccnc3)C(=O)Cc3ccc(OC(F)(F)F)cc3)nc3ncccc3c2=O)cc1`, the Drug uptake was 26 ng/mL.

In a further series the test system is Blood. The experiment in a line: Drug level in bleomycin-induced mouse blood at 1 mg/mL, sc. It counts as ADME, tissue-based.
Regarding `CCOc1ccc(-n2c([C@@H](C)N(Cc3ccc[n+]([O-])c3)C(=O)Cc3ccc(OC(F)(F)F)cc3)nc3ncccc3c2=O)cc1`, the Drug uptake was found to be 14 ng/mL.
Take `CCOc1ccc(-n2c([C@@H](C)N(Cc3cccnc3)C(=O)Cc3ccc(OC(F)(F)F)cc3)nc3ncccc3c2=O)cc1`: the Drug uptake amounted to 19 ng/mL.
